In article PMC7339578, “Multiple circulating alkaloids and saponins from intravenous Kang-Ai injection inhibit human cytochrome P450 and UDP-glucuronosyltransferase isozymes: potential drug–drug interactions” (Chinese Medicine, 2020):
Read-outs that look alike come from different tables or passages of the source.

Legend:
CYP3A4 = CYP3A4 (Homo sapiens, UniProt P08684); assay: Inhibition of recombinant CYP3A4 (probe nifedipine); type: in vitro ADME; details: recombinant isozyme; mean ± SD of triplicate; unit not given (IC50 classes in μM); read-out: IC50 towards CYP3A4
CYP3A4, sequence (P08684 whole entry): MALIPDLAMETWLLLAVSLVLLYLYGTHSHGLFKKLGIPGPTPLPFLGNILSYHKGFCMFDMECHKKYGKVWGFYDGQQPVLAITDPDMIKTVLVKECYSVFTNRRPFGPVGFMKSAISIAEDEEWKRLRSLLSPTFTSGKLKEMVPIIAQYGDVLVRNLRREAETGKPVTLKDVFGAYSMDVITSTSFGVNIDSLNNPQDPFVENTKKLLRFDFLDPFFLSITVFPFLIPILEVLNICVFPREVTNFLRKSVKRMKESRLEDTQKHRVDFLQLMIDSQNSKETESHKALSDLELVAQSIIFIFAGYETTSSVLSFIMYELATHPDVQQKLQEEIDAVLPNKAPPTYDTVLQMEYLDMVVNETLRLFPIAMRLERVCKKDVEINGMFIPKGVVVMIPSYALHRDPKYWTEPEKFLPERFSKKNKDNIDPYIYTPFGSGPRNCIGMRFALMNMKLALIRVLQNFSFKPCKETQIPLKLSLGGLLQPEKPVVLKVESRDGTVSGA
Protocol: (§1) In this study, phenacetin (100 μM), coumarin (100 μM), bupropion (100 μM), paclitaxel (60 μM), tolbutamide (200 μM), mephenytoin (100 μM), chlorzoxazone (200 μM) and nifedipine (40 μM) have been used as the probe substrates for CYP1A2, 2A6, 2B6, 2C8, 2C9, 2C19, 2E1 and 3A4, respectively.

[1] = Stability tests of analytes in rat plasma QC samples; type: in vitro ADME
Protocol: […] The dilution integrity was investigated by analyzing six replicate samples with each analyte, and each analyte were diluted 10-fold with blank rat matrix. Furthermore, the diluted samples were analyzed using freshly prepared calibration curve to calculate RE and RSD, which should be no more than ± 15% as criterion.

CYP2E1 = CYP2E1 (Homo sapiens, UniProt P05181); assay: Inhibition of recombinant CYP2E1 (probe chlorzoxazone)
CYP2E1, sequence (P05181 whole entry): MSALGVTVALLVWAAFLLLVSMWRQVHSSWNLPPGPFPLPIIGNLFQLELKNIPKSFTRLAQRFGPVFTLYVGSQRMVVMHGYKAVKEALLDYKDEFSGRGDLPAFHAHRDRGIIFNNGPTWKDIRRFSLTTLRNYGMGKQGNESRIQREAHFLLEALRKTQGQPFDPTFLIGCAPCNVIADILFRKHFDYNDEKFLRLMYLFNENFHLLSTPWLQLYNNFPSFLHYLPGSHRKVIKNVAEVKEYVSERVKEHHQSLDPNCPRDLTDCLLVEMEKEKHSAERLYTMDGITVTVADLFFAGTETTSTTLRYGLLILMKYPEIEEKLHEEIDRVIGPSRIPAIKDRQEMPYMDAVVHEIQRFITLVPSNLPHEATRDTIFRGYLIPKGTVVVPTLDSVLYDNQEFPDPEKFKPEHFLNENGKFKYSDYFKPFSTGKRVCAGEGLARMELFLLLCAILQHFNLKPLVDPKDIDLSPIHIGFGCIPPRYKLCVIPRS
Protocol: Phase I incubation system (100 μL) contained Tris–HCl buffer (50 mM, pH = 7.4), MgCl2 (5 mM), each CYP isozyme, specific substrates, circulating compounds and NADPH (1 mM) as prescribed previously. After incubation (37 °C, 60 min), the reaction was terminated by ice-cold acetonitrile (100 μL), following by centrifugation at 13,800g for 10 min. The supernatant (8 μL) was acquired for ultra-high-performance liquid chromatography (UHPLC) system (Waters, Manchester, UK) analysis.
After optimization of incubation conditions (Additional file 1: Fig. S1), the substrates were incubated with each CYP isozyme at different protein concentrations (0.05 mg/mL for CYP1A2 and 3A4; 0.1 mg/mL for CYP2A6, 2B6, 2C8, 2C9, 2C19 and 2E1) in the absence (control) and presence of different mixture or herbal compounds (Kang-Ai injection and samples that Kang-Ai injection was diluted 10 times; 1, 10, and 100 μM for matrine and oxymatrine; 0.1, 1, 10 and 100 μM for astragalosides and ginsenosides).
The half-inhibition concentration (IC50) values were determined by non-linear regression analysis. […] The inhibition mechanism towards corresponding CYP and UGT isoforms were further explored.
The inhibition constant (Ki) values were obtained by multiple concentrations of substrates in the absence or presence of multiple concentrations of herbal compounds as described previously. […] (1)–(3), respectively. The model with the smallest Akaike information criterion (AIC) and Schwartz information criterion (SC) values was considered as the best model, following the obtained appropriate Ki values. Model fitting and parameter estimation were performed using Graphpad Prism V5 software (SanDiego, CA).

CYP2B6 = molecular target: T1, CYP2B6 (Homo sapiens, UniProt P20813); assay: Inhibition of recombinant CYP2B6 (probe bupropion); type: in vitro ADME; details: recombinant isozyme; mean ± SD of triplicate; unit not given (IC50 classes in μM); read-out: IC50 towards CYP2B6
T1 sequence (P20813 1-491): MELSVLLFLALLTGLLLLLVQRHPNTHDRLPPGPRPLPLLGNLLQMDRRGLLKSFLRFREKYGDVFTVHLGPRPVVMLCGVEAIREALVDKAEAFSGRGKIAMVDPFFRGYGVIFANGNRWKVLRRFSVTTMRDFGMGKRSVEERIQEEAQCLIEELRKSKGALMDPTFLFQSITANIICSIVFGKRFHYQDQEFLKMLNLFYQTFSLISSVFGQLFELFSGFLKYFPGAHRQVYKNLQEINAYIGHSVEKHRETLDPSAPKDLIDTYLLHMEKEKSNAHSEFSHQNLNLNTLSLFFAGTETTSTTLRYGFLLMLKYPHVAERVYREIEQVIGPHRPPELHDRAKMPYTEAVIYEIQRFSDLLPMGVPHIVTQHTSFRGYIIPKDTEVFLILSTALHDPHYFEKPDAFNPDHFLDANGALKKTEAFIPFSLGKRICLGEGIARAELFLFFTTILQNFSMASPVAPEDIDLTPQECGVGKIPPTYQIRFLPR
Protocol: as §1

[2] = Urinary (renal) excretion in rats after a 30-min infusion of Kang-Ai injection; type: in vivo, Sprague–Dawley rats; details: Kang-Ai injection 6 mL/kg iv
How it was run: (§2)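 Urine collected in metabolic cages at 0–4, 4–8, 8–12 h and bile at 0–3, 3–6, 6–9, 9–12 h after infusion start, weighed and frozen at −80 °C. Non-compartmental analysis; CLR and CLB as cumulative urinary or biliary amount divided by plasma AUC0-∞, fe-U and fe-B as cumulative amount/dose; mean ± SD (n = 3).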

[3] = Biliary (hepatobiliary) excretion in rats after a 30-min infusion of Kang-Ai injection; type: in vivo, Sprague–Dawley rats; details: rat bile; Kang-Ai injection 6 mL/kg iv
How it was run: as §2

CYP2C19 = CYP2C19 (Homo sapiens, UniProt P33261); assay: Inhibition of recombinant CYP2C19 (probe mephenytoin); type: in vitro ADME; details: recombinant isozyme; mean ± SD of triplicate; unit not given (IC50 classes in μM); read-out: IC50 towards CYP2C19
CYP2C19, sequence (P33261 whole entry): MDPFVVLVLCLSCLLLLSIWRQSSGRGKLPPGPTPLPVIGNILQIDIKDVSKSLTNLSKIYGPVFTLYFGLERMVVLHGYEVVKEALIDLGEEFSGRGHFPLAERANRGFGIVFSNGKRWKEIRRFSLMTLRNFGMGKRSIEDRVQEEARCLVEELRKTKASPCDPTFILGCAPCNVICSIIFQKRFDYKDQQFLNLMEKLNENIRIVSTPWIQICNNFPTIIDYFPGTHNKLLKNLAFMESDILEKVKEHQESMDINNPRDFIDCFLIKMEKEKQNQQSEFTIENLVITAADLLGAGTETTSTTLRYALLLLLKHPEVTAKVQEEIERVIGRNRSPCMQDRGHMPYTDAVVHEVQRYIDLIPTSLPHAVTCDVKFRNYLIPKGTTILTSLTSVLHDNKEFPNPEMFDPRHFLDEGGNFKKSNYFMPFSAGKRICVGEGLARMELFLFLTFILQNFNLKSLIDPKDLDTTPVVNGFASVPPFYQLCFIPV
Protocol: as §1

[4] = rat plasma, nominal conc. 20 nM
[5] = rat plasma, nominal conc. 100 nM
[6] = rat plasma, nominal conc. 400 nM
[7] = rat plasma, nominal conc. 80 nM
[8] = rat plasma, nominal conc. 1600 nM

CC(C)=CCC[C@](C)(O[C@@H]1O[C@H](CO[C@@H]2O[C@@H](CO)[C@H](O)[C@H]2O)[C@@H](O)[C@H](O)[C@H]1O)[C@H]1CC[C@]2(C)[C@@H]1[C@H](O)C[C@@H]1[C@@]3(C)CC[C@H](O[C@@H]4O[C@H](CO)[C@@H](O)[C@H](O)[C@H]4O[C@@H]4O[C@H](CO)[C@@H](O)[C@H](O)[C@H]4O)C(C)(C)[C@@H]3CC[C@]12C [Compound D3, Ginsenoside Rc]
IC50 (CYP3A4): > 100 µM
At -80 °C for 48 h, Mean±SD [1, 4]: 21.79 ± 0.54 nM
At -80 °C for 48 h, RE [1, 4]: 11.90%
Extracted samples at 8 °C for 18 h, Mean±SD [1, 4]: 21.26 ± 0.64 nM
Extracted samples at 8 °C for 18 h, RE [1, 4]: 9.82%
Short-term stability at room temperature for 6 h, Mean±SD [1, 4]: 21.00 ± 1.54 nM
Short-term stability at room temperature for 6 h, RE [1, 4]: 10.56%
Three freeze-thaw cycles (-80 °C ↔ 23 °C), Mean±SD [1, 4]: 22.31 ± 0.31 nM
Three freeze-thaw cycles (-80 °C ↔ 23 °C), RE [1, 4]: 12.70%
At -80 °C for 48 h, Mean±SD [1, 5]: 92.14 ± 3.15 nM
At -80 °C for 48 h, RE [1, 5]: -10.73%
Extracted samples at 8 °C for 18 h, Mean±SD [1, 5]: 91.90 ± 3.48 nM
Extracted samples at 8 °C for 18 h, RE [1, 5]: -12.09%
Short-term stability at room temperature for 6 h, RE [1, 5]: -13.45%
Three freeze-thaw cycles (-80 °C ↔ 23 °C), Mean±SD [1, 5]: 107.11 ± 6.52 nM
Three freeze-thaw cycles (-80 °C ↔ 23 °C), RE [1, 5]: 11.88%
At -80 °C for 48 h, Mean±SD [1, 6]: 421.69 ± 7.21 nM
At -80 °C for 48 h, RE [1, 6]: 7.06%
Extracted samples at 8 °C for 18 h, Mean±SD [1, 6]: 432.26 ± 28.61 nM
Extracted samples at 8 °C for 18 h, RE [1, 6]: 12.97%
Short-term stability at room temperature for 6 h, Mean±SD [1, 6]: 366.80 ± 3.85 nM
Short-term stability at room temperature for 6 h, RE [1, 6]: -9.03%
Three freeze-thaw cycles (-80 °C ↔ 23 °C), Mean±SD [1, 6]: 413.15 ± 9.39 nM
Three freeze-thaw cycles (-80 °C ↔ 23 °C), RE [1, 6]: 5.12%
Short-term stability at room temperature for 6 h, Mean±SD ([1]; rat, 6 h, 100 nM): 94.62 ± 9.91 nM
IC50 (CYP2E1): > 100 µM
IC50 (CYP2B6): > 100 µM
CL renal ([2]; male, Sprague-Dawley, urine and plasma, rat, read-out: CLR (renal excretory clearance) (converted)): 0.00967 mL/min
fe-U,0–12h (fraction of dose excreted into urine) ([2]; rat urine 0–12 h): 10.48 ± 1.31%
detection in bile [3]: not detected in bile
IC50 (CYP2C19): > 100 µM

CC(C)(O)[C@@H]1CC[C@](C)([C@H]2[C@@H](O)C[C@@]3(C)[C@@H]4C[C@H](O[C@@H]5O[C@H](CO)[C@@H](O)[C@H](O)[C@H]5O)[C@H]5C(C)(C)[C@@H](O[C@@H]6OC[C@@H](O)[C@H](O)[C@H]6O)CC[C@@]56C[C@@]46CC[C@]23C)O1 [Compound B2, Astragaloside IV]
IC50 (CYP3A4): > 100 µM
At -80 °C for 48 h, Mean±SD [1, 7]: 87.06 ± 0.84 nM
At -80 °C for 48 h, RE [1, 7]: 9.91%
Extracted samples at 8 °C for 18 h, Mean±SD [1, 7]: 80.76 ± 10.01 nM
Extracted samples at 8 °C for 18 h, RE [1, 7]: -13.07%
Short-term stability at room temperature for 6 h, Mean±SD [1, 7]: 82.35 ± 9.84 nM
Short-term stability at room temperature for 6 h, RE [1, 7]: -11.26%
Three freeze-thaw cycles (-80 °C ↔ 23 °C), Mean±SD [1, 7]: 88.56 ± 1.31 nM
Three freeze-thaw cycles (-80 °C ↔ 23 °C), RE [1, 7]: 12.35%
At -80 °C for 48 h, Mean±SD [1, 6]: 378.90 ± 6.78 nM
At -80 °C for 48 h, RE [1, 6]: -7.16%
Extracted samples at 8 °C for 18 h, Mean±SD [1, 6]: 376.72 ± 29.81 nM
Extracted samples at 8 °C for 18 h, RE [1, 6]: -10.44%
Short-term stability at room temperature for 6 h, Mean±SD [1, 6]: 361.42 ± 15.40 nM
Short-term stability at room temperature for 6 h, RE [1, 6]: -13.36%
Three freeze-thaw cycles (-80 °C ↔ 23 °C), Mean±SD [1, 6]: 385.93 ± 32.19 nM
Three freeze-thaw cycles (-80 °C ↔ 23 °C), RE [1, 6]: -12.56%
At -80 °C for 48 h, Mean±SD [1, 8]: 1507.16 ± 152.79 nM
At -80 °C for 48 h, RE [1, 8]: -12.08%
Extracted samples at 8 °C for 18 h, Mean±SD [1, 8]: 1574.79 ± 151.38 nM
Extracted samples at 8 °C for 18 h, RE [1, 8]: -11.93%
Short-term stability at room temperature for 6 h, Mean±SD [1, 8]: 1463.38 ± 60.14 nM
Short-term stability at room temperature for 6 h, RE [1, 8]: -11.64%
Three freeze-thaw cycles (-80 °C ↔ 23 °C), Mean±SD [1, 8]: 1434.32 ± 47.18 nM
Three freeze-thaw cycles (-80 °C ↔ 23 °C), RE [1, 8]: -13.10%
IC50 (CYP2E1; read-out: IC50 towards CYP2E1, recombinant isozyme, mean ± SD of triplicate, unit not given (IC50 classes in μM)): > 100 µM
IC50 (CYP2B6): > 100 µM
fraction of dose excreted unchanged via renal plus hepatobiliary excretion (sum of fe-U and fe-B) ([2]; rat urine + bile, 0–12 h): about 25%
IC50 (CYP2C19): > 100 µM
